Type in all cases: in vivo
In assay [1] the test system is Wistar male rat. In words: Blood glucose concentration increasing activity of RFRP (intravenous administration to rat). The settings on record: RFRP-1 10 nmol/kg intravenous, 5 minutes and 15 minutes after administration, vs physiological saline group. An excerpt:
In the figure, (-∘-) represents a blood glucose concentration of a physiological saline administration group, (-▴-) represents a blood glucose concentration of an RFRP-1 1 nmol/kg administration group, and (-▪-) represents a blood concentration of an RFRP-1 10 nmol/kg administration group.
As RFRP, human RFRP-1 (37 amino acids) consisting of an amino acid sequence of 56th (Ser) to 92nd (Phe) of an amino acid sequence represented by SEQ ID No.: 4. Hereinafter, this peptide is abbreviated as RFRP-1.
In order to study influence of peripheral administration of RFRP-1 on a blood glucose concentration, operation for collecting blood under free moving was performed. A mature Wistar male rat (weight 310 to 350 g at operation) was anesthetized with 50 mg/kg of pentobarbital by intraperitoneal administration. The rat was fixed on an anatomic pad in a supine position, and a left jugular vein was exposed. […]
Overnight after operation, 300 μl of blood was collected using a tuberculin injection syringe having a dose of 1 ml and a 25 gauge injection needle (both Telmo) before administration of RFRP-1. […] A blood glucose concentration was measured using Fuji Drichem 3500 (FUJIFILM).

The test system of assay [2] is Wistar male rat. As to the kind of experiment: Pancreatic glucagon secretion promoting activity of RFRP (blood glucagon and insulin in rat). To be noted: RFRP-1 intravenous; for blood glucagon concentration: vs physiological saline group. From the text: In the figure, (-∘-) represents a blood glucagon concentration of a physiological saline administration group, (-▴-) represents a blood glucagon concentration of an RFRP-1 1 nmol/kg administration group, and (-▪-) represents a blood glucagon concentration of an RFRP-1 10 nmol/kg administration group.
In the figure, (-∘-) represents a blood insulin concentration of a physiological saline administration group, (-▴-) represents a blood insulin concentration of an RFRP-1 1 nmol/kg administration group, and (-▪-) represents a blood insulin concentration of an RFRP-1 10 nmol/kg administration group. A value indicates mean±standard deviation (mean±SE) (n=4).
In order to study mechanism of blood glucose concentration increasing activity of RFRP-1, influence of RFRP-1 on a blood concentration of glucagon and insulin which are known as a hormone imparting a variation to a blood glucose concentration was studied. A mature Wistar male rat (weight 310 to 350 g at operation) was operated for collecting blood under free moving. Overnight after operation, 300 μl of a blood was collected using a tuberculin injection syringe having a dose of 1 ml and a 25 gauge injection needle (both Telmo) before administration of RFRP-1. In order to prevent blood coagulation, 3 μl of a 300 KIU/ml aprotinin solution containing 3 mg/ml EDTA had been placed into an injection syringe in advance. An Otsuka physiological saline or RFRP-1 dissolved in a physiological saline (80 nmol/mL) was intravenously administered through a tube at 1 mL/Kg. After 1, 3, 5 and 15 minutes from initiation of intravenous administration, each 300 μl of blood was collected from a jugular vein. The collected blood was centrifuged (13,000 rpm, 5 minutes) using a minor amount high speed cooling centrifuge (MR-150, Tommy Seiko), and the supernatant (plasma) was recovered.

The test system of assay [3] is Wistar male rat. As to the kind of experiment: Amnesia promoting activity of RFRP (cued fear conditioning, ventricle administration). To be noted: RFRP-1 3 nmol into a ventricle, on 2 day (48 hours after training), sound stimulation. How it is done: FIG. 4 indicates a ratio of freezing in a sound clue when RFRP-1 (-□-) and a physiological saline (-∘-) are administered in a ventricle. An ordinate axis indicates freezing (%) of one day and two day after administration, respectively, expressed by mean±standard error.
Since an RFRP nerve is projected on amygdaloid complex, in order to study involvement of RFRP in amygdaloid complex-dependent memory•learning ability, influence under cued fear conditioning due to ventricle administration of RFRP-1 was studied. A mature Wistar male rat (weight 280 to 320 g at operation) was anesthetized with 50 mg/kg of pentobarbital by intraperitoneal administration, and a rat was fixed in a brain localization apparatus. A tooth cutting bar was set lower by 3.3 mm from an interoralline. A cranial bone was exposed, and a hole was opened in a bone using a dental drill in order to embed a guide cannulae AG-12 (internal diameter 0.4 mm, external diameter 0.5 mm, Eicom) in a ventricle. In addition, an anchor screw was embedded in four places at a periphery thereof. A stainless guide cannulae AG-12 was inserted so that its tip was positioned at an upper part of a side ventricle. A localization coordinate was set to be AP: −0.8 mm, L: 1.5 mm, H, 4.5 mm from a Blegma according to Atlas of Paxinos and Watson (1986). […]

In the case of “RFRP-1: human RFRP-1 (37 amino acids) consisting of an amino acid sequence of 56th (Ser) to 92nd (Phe) of SEQ ID No.: 4 (SLNFEELKDWGPKNVIKMSTPAVNKMPHSFANLPLRF; Human)”, in the assay on Wistar male rat [1], the blood glucose concentration entry is reported as “significant (p<0.05, n=4) activity of increasing a blood glucose concentration”. In addition, the blood insulin concentration result in the assay with Wistar male rat [2] is on record as “a variation due to administration of RFRP-1 was not recognized”. The blood glucagon concentration result is “significant (p<0.01) increase was continued” with Wistar male rat [2] (5 minutes after administration) and “significant (p<0.01) increase in a blood glucagon concentration was recognized” in the assay with Wistar male rat [2] (two minutes after administration). The substance also had a rate of freezing with Wistar male rat [3] of 35.5%.

For the origin of these results see US20090239839A1, “RECEPTOR ANTAGONIST” (TAKEDA PHARMACEUTICAL COMPANY LIMITED, priority 2003, published 2009).
